# In ChEMBL document CHEMBL3885881, “DrugMatrix”:
# Organism: Rattus norvegicus
# Test: DrugMatrix - Regimen: Daily Repeat
# Format: toxicity, organism-based, Sprague-Dawley
# Design: regimen Daily Repeat, gender Male, age 6-8 weeks
# Settings: in vivo, iv, vehicle 100 % SALINE; for URIC ACID / ALANINE AMINOTRANSFERASE / ALBUMIN / ALKALINE PHOSPHATASE / ASPARTATE AMINOTRANSFERASE / BLOOD UREA NITROGEN / CARBON DIOXIDE / CHLORIDE / CHOLESTEROL / CREATINE PHOSPHOKINASE / CREATININE / GLUCOSE / LIPASE / PHOSPHORUS / POTASSIUM / SODIUM / TOTAL BILIRUBIN / TOTAL PROTEIN: tissue Plasma; for ABSOLUTE BASOPHIL / ABSOLUTE EOSINOPHIL / ABSOLUTE LYMPHOCYTE / ABSOLUTE MONOCYTE / ABSOLUTE SEGMENTED NEUTROPHIL / BASOPHIL / EOSINOPHIL / ERYTHROCYTE COUNT / HEMATOCRIT / HEMOGLOBIN / LYMPHOCYTE / MEAN CORPUSCULAR HEMOGLOBIN / MEAN CORPUSCULAR HEMOGLOBIN CONCENTRATION / MONOCYTE / NEUTROPHIL / NUCLEATED RED BLOOD CELLS / PLATELET COUNT: tissue Blood
# [1] = 5 mg/kg, 120 h, dose level High, time 5 day
# [2] = […], 72 h, dose 1.5 mg/Kg, dose level Low, time 3 day
# [3] = […], 120 h, dose 1.5 mg/Kg, dose level Low, time 5 day
structure (smiles),measurement,setting,value
CCc1c2c(nc3ccc(OC(=O)N4CCC(N5CCCCC5)CC4)cc13)-c1cc3c(c(=O)n1C2)COC(=O)[C@]3(O)CC [IRINOTECAN],URIC ACID,"5 mg/kg, 72 h, dose level High, time 3 day",1.77 mg/dL
same,ABSOLUTE BASOPHIL,[1],0 CELLS/uL
same,ABSOLUTE EOSINOPHIL,[1],0 CELLS/uL
same,ABSOLUTE LYMPHOCYTE,[1],10356 CELLS/uL
same,ABSOLUTE MONOCYTE,[1],74 CELLS/uL
same,ABSOLUTE SEGMENTED NEUTROPHIL,[1],470 CELLS/uL
same,BASOPHIL,[1],0%
same,EOSINOPHIL,[1],0%
same,ERYTHROCYTE COUNT,[1],6.32 x10E6/uL
same,HEMATOCRIT,[1],37.73%
same,HEMOGLOBIN,[1],15.1 G/DL
same,LYMPHOCYTE,[1],95%
same,MEAN CORPUSCULAR HEMOGLOBIN,[1],23.93 pg
same,MEAN CORPUSCULAR HEMOGLOBIN CONCENTRATION,[1],40.07 G/DL
same,MONOCYTE,[1],0.67%
same,NEUTROPHIL,[1],4.33%
same,NUCLEATED RED BLOOD CELLS,[1],0 /100WBC
same,PLATELET COUNT,[1],1232.33 x10E3/uL
same,ALANINE AMINOTRANSFERASE,[1],38 u/L
same,ALBUMIN,[1],4.37 G/DL
same,ALKALINE PHOSPHATASE,[1],299.33 u/L
same,ASPARTATE AMINOTRANSFERASE,[1],100.33 u/L
same,BLOOD UREA NITROGEN,[1],21.33 mg/dL
same,CARBON DIOXIDE,[1],22.67 mmol/L
same,CHLORIDE,[1],100 MEQ/L
same,CHOLESTEROL,[1],65 mg/dL
same,CREATINE PHOSPHOKINASE,[1],991 u/L
same,CREATININE,[1],0.24 mg/dL
same,GLUCOSE,[1],171.67 mg/dL
same,LIPASE,[1],9.33 u/L
same,PHOSPHORUS,[1],12.93 mg/dL
same,POTASSIUM,[1],6.75 MEQ/L
same,SODIUM,[1],142.97 MEQ/L
same,TOTAL BILIRUBIN,[1],0.13 mg/dL
same,TOTAL PROTEIN,[1],6.67 G/DL
same,URIC ACID,[1],2.8 mg/dL
same,ABSOLUTE BASOPHIL,[2],0 CELLS/uL
same,ABSOLUTE EOSINOPHIL,[2],215 CELLS/uL
same,ABSOLUTE LYMPHOCYTE,[2],8779 CELLS/uL
same,ABSOLUTE MONOCYTE,[2],139.33 CELLS/uL
same,ABSOLUTE SEGMENTED NEUTROPHIL,[2],933.33 CELLS/uL
same,BASOPHIL,[2],0%
same,EOSINOPHIL,[2],2%
same,ERYTHROCYTE COUNT,[2],5.76 x10E6/uL
same,HEMATOCRIT,[2],36.73%
same,HEMOGLOBIN,[2],14.23 G/DL
same,LYMPHOCYTE,[2],87.33%
same,MEAN CORPUSCULAR HEMOGLOBIN,[2],24.73 pg
same,MEAN CORPUSCULAR HEMOGLOBIN CONCENTRATION,[2],38.77 G/DL
same,MONOCYTE,[2],1.33%
same,NEUTROPHIL,[2],9.33%
same,NUCLEATED RED BLOOD CELLS,[2],0 /100WBC
same,PLATELET COUNT,[2],1185.67 x10E3/uL
same,ALANINE AMINOTRANSFERASE,[2],45.33 u/L
same,ALBUMIN,[2],4.23 G/DL
same,ALKALINE PHOSPHATASE,[2],367.67 u/L
same,ASPARTATE AMINOTRANSFERASE,[2],79.33 u/L
same,BLOOD UREA NITROGEN,[2],14.67 mg/dL
same,CARBON DIOXIDE,[2],27 mmol/L
same,CHLORIDE,[2],99 MEQ/L
same,CHOLESTEROL,[2],76.33 mg/dL
same,CREATINE PHOSPHOKINASE,[2],268.33 u/L
same,CREATININE,[2],0.18 mg/dL
same,GLUCOSE,[2],157 mg/dL
same,LIPASE,[2],9.67 u/L
same,PHOSPHORUS,[2],15.07 mg/dL
same,POTASSIUM,[2],6.67 MEQ/L
same,SODIUM,[2],143.87 MEQ/L
same,TOTAL BILIRUBIN,[2],0.17 mg/dL
same,URIC ACID,[2],1.7 mg/dL
same,ABSOLUTE BASOPHIL,[3],0 CELLS/uL
same,ABSOLUTE EOSINOPHIL,[3],58.33 CELLS/uL
same,ABSOLUTE LYMPHOCYTE,[3],15491.67 CELLS/uL
same,ABSOLUTE MONOCYTE,[3],116.67 CELLS/uL
same,ABSOLUTE SEGMENTED NEUTROPHIL,[3],2000 CELLS/uL
same,BASOPHIL,[3],0%
same,EOSINOPHIL,[3],0.33%
same,HEMATOCRIT,[3],36.13%
same,HEMOGLOBIN,[3],14.3 G/DL
same,LYMPHOCYTE,[3],87.67%
same,MEAN CORPUSCULAR HEMOGLOBIN,[3],24 pg
same,MEAN CORPUSCULAR HEMOGLOBIN CONCENTRATION,[3],39.57 G/DL
same,MONOCYTE,[3],0.67%
same,NEUTROPHIL,[3],11.33%
same,NUCLEATED RED BLOOD CELLS,[3],0 /100WBC
same,PLATELET COUNT,[3],1288 x10E3/uL
same,ALANINE AMINOTRANSFERASE,[3],54 u/L
same,ALBUMIN,[3],4.03 G/DL
same,ALKALINE PHOSPHATASE,[3],415.33 u/L
same,ASPARTATE AMINOTRANSFERASE,[3],101 u/L
same,BLOOD UREA NITROGEN,[3],15.67 mg/dL
same,CARBON DIOXIDE,[3],26 mmol/L
same,CHLORIDE,[3],101.33 MEQ/L
same,CHOLESTEROL,[3],68.67 mg/dL
same,CREATINE PHOSPHOKINASE,[3],578.67 u/L
same,CREATININE,[3],0.21 mg/dL
same,GLUCOSE,[3],151 mg/dL
same,LIPASE,[3],9.67 u/L
same,PHOSPHORUS,[3],13.47 mg/dL
same,POTASSIUM,[3],6.54 MEQ/L
same,SODIUM,[3],146.17 MEQ/L
same,TOTAL BILIRUBIN,[3],0.13 mg/dL
same,TOTAL PROTEIN,[3],5.93 G/DL
same,URIC ACID,[3],1.8 mg/dL
